Experimental data: patent US9051418B2, “Glucose-PEG conjugates for reducing glucose transport into a cell” (Agency for Science, Technology and Research, priority 2008, dated 2015)
Entries after “also recorded” stand apart in the source; their conditions may differ.

Key:
[1] = system: SkBr3 (human breast cancer) cell line; details: SkBr3, concentration of 4 mM; cited from earlier work
[2] = system: tumor; details: animal studies, supplemental 2-DG; cited from earlier work
[3] = system: different cancer cell lines; details: 200 μM, MTT, Table 1
Experimental: MTT assay was carried out to monitor the viability of the cells. Values obtained for the cells without any treatments were kept as 100%.
Different cancer cell lines, MCF-7 (breast cancer), H1299 (lung cancer), HepG2 (liver cancer), DU145 (prostate cancer), Caco2 (colon cancer) and AGS (gastric cancer) were obtained from American Type Culture Collection (ATCC). Normal breast epithelial cell line (MCF-10A) was used for comparison. The cells were maintained in the growth medium as described by ATCC. Approximately 10,000 cells were seeded onto a 96-well plate. Modified glucose compounds were added to the cells after 24 h of seeding. The cells were further cultured in the presence of the modified glucose compounds for up to 7 days. The medium was changed everyday along with the specified concentration of modified glucose.
MTT assay was performed using the TACS™ MTT cell proliferation assay kit (Trevigen Inc, Md., USA). Briefly, after treatment of cells, 10 μl of MTT reagent was added and incubated at 37° C. for 4 h. The cells were lysed using detergent for 4 h at room temperature. The absorbance was measured in a standard plate reader at 570 nm.

[4] = system: H1299; details: H1299, 200 μM, 3 days
Experimental: Human lung cancer cells (H1299) were treated for 3 days with 200 μM of modified glucose (GBrP). Control cells were prepared without treatment. Total RNA was extracted from the cells and reverse transcribed. A PCR array containing primers to identify the apoptotic pathway was used to identify the apoptosis pathway between control and treated cells in lung cancer cells.
Gene expression analysis was carried out to understand the apoptosis pathway during the modified glucose mediated cell death.

[5] = system: DU145; details: DU145, 200 μM, 3 days
[6] = system: MCF-7 cells; assay: MTT cell viability assay, MCF-7 cells cultured 7 days with modified glucose; details: MCF-7, different concentrations
Experimental: MCF-7 cells were seeded onto 96-well plates at least 24 h prior to the experiment. […] MTT assay was performed to assess the cell viability. […] Cell viability was normalized with that of the control cells. […] The cells were treated as described in FIG. 3, followed by the MTT assay. […] MTT assay was carried out to monitor the viability of the cells. Values obtained for the cells without any treatments were kept as 100%. Different cancer cell lines, MCF-7 (breast cancer), H1299 (lung cancer), HepG2 (liver cancer), DU145 (prostate cancer), Caco2 (colon cancer) and AGS (gastric cancer) were obtained from American Type Culture Collection (ATCC). Normal breast epithelial cell line (MCF-10A) was used for comparison. The cells were maintained in the growth medium as described by ATCC. Approximately 10,000 cells were seeded onto a 96-well plate. Modified glucose compounds were added to the cells after 24 h of seeding. The cells were further cultured in the presence of the modified glucose compounds for up to 7 days. The medium was changed everyday along with the specified concentration of modified glucose. […] MTT assay was performed using the TACS™ MTT cell proliferation assay kit (Trevigen Inc, Md., USA). Briefly, after treatment of cells, 10 μl of MTT reagent was added and incubated at 37° C. for 4 h. […] The absorbance was measured in a standard plate reader at 570 nm.

[7] = target: T1, GLUT1 (Homo sapiens, UniProt P11166); assay: Glucose competition binding assay with GPB fluorescence; details: MCF-7, 200 μM GPB, glucose 10-40 mM, 30 min, 37° C.
T1 construct: host or cells: MCF-7 human breast cancer cells
T1 sequence (P11166 1-492): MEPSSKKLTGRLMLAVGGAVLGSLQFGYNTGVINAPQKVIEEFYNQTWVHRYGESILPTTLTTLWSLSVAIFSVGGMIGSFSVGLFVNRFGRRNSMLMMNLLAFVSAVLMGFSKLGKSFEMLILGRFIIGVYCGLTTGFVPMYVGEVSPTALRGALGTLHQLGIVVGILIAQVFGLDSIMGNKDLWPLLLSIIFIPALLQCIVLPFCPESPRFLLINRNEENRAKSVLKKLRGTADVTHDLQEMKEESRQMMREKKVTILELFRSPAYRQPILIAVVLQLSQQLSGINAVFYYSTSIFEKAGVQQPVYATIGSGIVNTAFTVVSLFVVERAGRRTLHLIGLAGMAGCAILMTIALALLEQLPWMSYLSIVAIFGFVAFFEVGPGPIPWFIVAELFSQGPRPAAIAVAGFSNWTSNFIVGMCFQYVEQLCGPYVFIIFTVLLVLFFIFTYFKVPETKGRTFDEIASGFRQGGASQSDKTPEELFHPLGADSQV
Experimental: FIG. 6: Competition assay. […] The cells were incubated for 30 min at 37° C. The cells were washed with PBS, and the total intensity was measured using a plate reader.
FIG. 10: Binding of GBP to GLUT1. […] After 30 minutes the fluorescence intensity was measured using a plate reader.
The medium was removed and the cells were washed briefly with PBS twice. The fluorescence intensity was measured with an excitation of 488 nm and an emission of 522 nm. The fluorescence intensity was normalized by that of the control cells.
A glucose competition assay was carried out to confirm that the modified glucose-PEG is binding to the GLUT1 receptors. Increasing concentrations of un-modified glucose were used. […] After 30 minutes the fluorescence intensity was measured using a plate reader.

[8] = system: MCF-7 cells; assay: Fluorescence imaging of cells labeled with GPB; assay type: cell-based, human; details: MCF-7, live fluorescence imaging after incubation and PBS wash
Experimental: They were washed with PBS before fluorescence imaging. Scale bar=500 μm. The MCF-7 cells were seeded on a 6-well plate at least 24 h prior to imaging. […] The cells were washed with PBS (without calcium and magnesium) thrice. Live imaging was performed with fluorescence microscopy. Metamorph (Molecular Devices, USA) and Image J (freeware from NIH, USA) were used for image capturing and processing.

Compound: O=CC[C@@H](O)[C@H](O)[C@H](O)CO [2-DG, 2-deoxyglucose]
- apoptotic cells [1]: 50%
- tumor growth [2]: growth of the tumor was inhibited

Compound: glucose-conjugated branched PEG [GBrP]
- inhibition of viability of various different cancer cell lines [3]: significantly inhibit the viability
- apoptosis pathway gene expression, treated vs control [4]: AKT1 and ABL1 were down regulated while APAF1 and TP53BP were upregulated
- apoptosis pathway gene expression, treated vs control [5]: AKT1 and ABL1 were down regulated while APAF1 and TP53BP were upregulated

Compound: Glucose-PEG-BODIPY [GPB]
- dose-dependent effect on cell viability [6]: gradual dose-dependent decrease in the cell viability
- competition of un-modified glucose with GPB binding (fluorescence intensity) [7]: glucose competed with the GPB in binding to the GLUTs; also recorded: intensity of the fluorescence decreases with the increase in un-modified glucose
- localization of fluorescence in cells [8]: localized on the plasma membrane of the cells
